Reference: PubChem BioAssay (NCI)
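Following 48 hours of exposure in 96-well plates, responses at five concentrations were used to interpolate endpoints linearly. TGI denotes the concentration required for complete inhibition of growth.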

Tests used:
Assay in all cases: NCI tumour cell line growth inhibition, 48 h
HT29 colon = test system: HT29 colon
OVCAR-5 ovarian = test system: OVCAR-5 ovarian
SNB-78 CNS = test system: SNB-78 CNS
KM20L2 colon = test system: KM20L2 colon
MOLT-4 leukemia = test system: MOLT-4 leukemia
UACC-257 melanoma = test system: UACC-257 melanoma
SK-OV-3 ovarian = test system: SK-OV-3 ovarian
SN12C renal = test system: SN12C renal
RXF 393 renal = test system: RXF 393 renal
CCRF-CEM leukemia = test system: CCRF-CEM leukemia
HCC-2998 colon = test system: HCC-2998 colon
NCI-H226 lung = test system: NCI-H226 lung
SK-MEL-2 melanoma = test system: SK-MEL-2 melanoma
UACC-62 melanoma = test system: UACC-62 melanoma
HCT-15 colon = test system: HCT-15 colon
SNB-75 CNS = test system: SNB-75 CNS
P388/ADR leukemia = test system: P388/ADR leukemia
HCT-116 colon = test system: HCT-116 colon
OVCAR-4 ovarian = test system: OVCAR-4 ovarian
A549 NSCLC = test system: A549 NSCLC
A498 renal = test system: A498 renal
OVCAR-8 ovarian = test system: OVCAR-8 ovarian
DMS 273 small cell lung = test system: DMS 273 small cell lung
K-562 leukemia = test system: K-562 leukemia
HL-60(TB) leukemia = test system: HL-60(TB) leukemia
LOX IMVI melanoma = test system: LOX IMVI melanoma
NCI/ADR-RES ovarian = test system: NCI/ADR-RES ovarian
SF-268 CNS = test system: SF-268 CNS
NCI-H460 lung = test system: NCI-H460 lung
P388 leukemia = test system: P388 leukemia
HOP-18 NSCLC = test system: HOP-18 NSCLC
U251 CNS = test system: U251 CNS
IGROV1 ovarian = test system: IGROV1 ovarian
SK-MEL-28 melanoma = test system: SK-MEL-28 melanoma
HOP-92 NSCLC = test system: HOP-92 NSCLC
UO-31 renal = test system: UO-31 renal
NCI-H23 lung = test system: NCI-H23 lung
MCF7 breast = test system: MCF7 breast
KM12 colon = test system: KM12 colon
M19-MEL melanoma = test system: M19-MEL melanoma
EKVX NSCLC = test system: EKVX NSCLC
NCI-H522 lung = test system: NCI-H522 lung
SF-539 CNS = test system: SF-539 CNS
MALME-3M melanoma = test system: MALME-3M melanoma
SN12K1 renal = test system: SN12K1 renal
SW-620 colon = test system: SW-620 colon
SK-MEL-5 melanoma = test system: SK-MEL-5 melanoma
RPMI-8226 leukemia = test system: RPMI-8226 leukemia
COLO 205 colon = test system: COLO 205 colon
XF 498 CNS = test system: XF 498 CNS
OVCAR-3 ovarian = test system: OVCAR-3 ovarian
SF-295 CNS = test system: SF-295 CNS
HOP-62 NSCLC = test system: HOP-62 NSCLC
DLD-1 colon = test system: DLD-1 colon
786-0 renal = test system: 786-0 renal
RXF-631 renal = test system: RXF-631 renal
LXFL 529 NSCLC = test system: LXFL 529 NSCLC
TK-10 renal = test system: TK-10 renal
ACHN renal = test system: ACHN renal
DMS 114 small cell lung = test system: DMS 114 small cell lung
CAKI-1 renal = test system: CAKI-1 renal
SNB-19 CNS = test system: SNB-19 CNS
M14 melanoma = test system: M14 melanoma

O=Cc1c(Br)[nH]c2ccccc12
TGI (HT29 colon): > 100 µM
TGI (OVCAR-5 ovarian): > 100 µM
TGI (SNB-78 CNS): > 100 µM
TGI (KM20L2 colon): > 100 µM
TGI (MOLT-4 leukemia): > 72.6 µM
TGI (UACC-257 melanoma): 77.7 µM
TGI (SK-OV-3 ovarian): > 100 µM
TGI (SN12C renal): > 100 µM
TGI (RXF 393 renal): > 100 µM
TGI (CCRF-CEM leukemia): > 100 µM
TGI (HCC-2998 colon): > 100 µM
TGI (NCI-H226 lung): > 100 µM
TGI (SK-MEL-2 melanoma): > 100 µM
TGI (UACC-62 melanoma): > 100 µM
TGI (HCT-15 colon): > 100 µM
TGI (SNB-75 CNS): > 100 µM
TGI (P388/ADR leukemia): > 100 µM
TGI (HCT-116 colon): > 100 µM
TGI (OVCAR-4 ovarian): > 100 µM
TGI (A549 NSCLC): > 100 µM
TGI (A498 renal): > 100 µM
TGI (OVCAR-8 ovarian): > 100 µM
TGI (DMS 273 small cell lung): > 100 µM
TGI (K-562 leukemia): > 100 µM
TGI (HL-60(TB) leukemia): > 100 µM
TGI (LOX IMVI melanoma): > 100 µM
TGI (NCI/ADR-RES ovarian): > 100 µM
TGI (SF-268 CNS): > 100 µM
TGI (NCI-H460 lung): > 100 µM
TGI (P388 leukemia): > 100 µM
TGI (HOP-18 NSCLC): > 100 µM
TGI (U251 CNS): > 100 µM
TGI (IGROV1 ovarian): > 100 µM
TGI (SK-MEL-28 melanoma): > 100 µM
TGI (HOP-92 NSCLC): > 100 µM
TGI (UO-31 renal): > 100 µM
TGI (NCI-H23 lung): > 100 µM
TGI (MCF7 breast): > 100 µM
TGI (KM12 colon): > 100 µM
TGI (M19-MEL melanoma): > 100 µM
TGI (EKVX NSCLC): > 100 µM
TGI (NCI-H522 lung): > 100 µM
TGI (SF-539 CNS): > 100 µM
TGI (MALME-3M melanoma): > 100 µM
TGI (SN12K1 renal): > 100 µM
TGI (SW-620 colon): > 100 µM
TGI (SK-MEL-5 melanoma): > 100 µM
TGI (RPMI-8226 leukemia): > 100 µM
TGI (COLO 205 colon): > 100 µM
TGI (XF 498 CNS): > 100 µM
TGI (OVCAR-3 ovarian): > 100 µM
TGI (SF-295 CNS): > 100 µM
TGI (HOP-62 NSCLC): > 100 µM
TGI (DLD-1 colon): > 100 µM

O=C1c2cccc3c(Cl)ccc(c23)C(=O)N1CCCN1CCN(CCCN2C(=O)c3cccc4c(Cl)ccc(c34)C2=O)CC1
TGI (HT29 colon): > 100 µM
TGI (OVCAR-5 ovarian): > 100 µM
TGI (SNB-78 CNS): > 100 µM
TGI (KM20L2 colon): > 100 µM
TGI (MOLT-4 leukemia): > 100 µM
TGI (UACC-257 melanoma): > 100 µM
TGI (SK-OV-3 ovarian): > 100 µM
TGI (SN12C renal): > 100 µM
TGI (CCRF-CEM leukemia): > 100 µM
TGI (HCC-2998 colon): > 100 µM
TGI (NCI-H226 lung): > 100 µM
TGI (SK-MEL-2 melanoma): > 100 µM
TGI (786-0 renal): > 100 µM
TGI (UACC-62 melanoma): > 100 µM
TGI (RXF-631 renal): > 100 µM
TGI (HCT-15 colon): > 100 µM
TGI (SNB-75 CNS): > 100 µM
TGI (HCT-116 colon): > 100 µM
TGI (OVCAR-4 ovarian): > 100 µM
TGI (A549 NSCLC): > 100 µM
TGI (A498 renal): > 100 µM
TGI (LXFL 529 NSCLC): > 100 µM
TGI (OVCAR-8 ovarian): > 100 µM
TGI (DMS 273 small cell lung): > 100 µM
TGI (K-562 leukemia): > 100 µM
TGI (HL-60(TB) leukemia): > 100 µM
TGI (LOX IMVI melanoma): > 100 µM
TGI (TK-10 renal): > 100 µM
TGI (NCI-H460 lung): > 100 µM
TGI (HOP-18 NSCLC): > 100 µM
TGI (ACHN renal): > 100 µM
TGI (DMS 114 small cell lung): > 100 µM
TGI (U251 CNS): > 100 µM
TGI (IGROV1 ovarian): > 100 µM
TGI (HOP-92 NSCLC): > 100 µM
TGI (CAKI-1 renal): > 100 µM
TGI (UO-31 renal): > 100 µM
TGI (NCI-H23 lung): > 100 µM
TGI (KM12 colon): > 100 µM
TGI (EKVX NSCLC): > 100 µM
TGI (SF-539 CNS): > 100 µM
TGI (MALME-3M melanoma): > 100 µM
TGI (SNB-19 CNS): > 100 µM
TGI (M14 melanoma): > 100 µM
TGI (SW-620 colon): > 100 µM
TGI (SK-MEL-5 melanoma): > 100 µM
TGI (RPMI-8226 leukemia): > 100 µM
TGI (COLO 205 colon): > 100 µM
TGI (XF 498 CNS): > 100 µM
TGI (OVCAR-3 ovarian): > 100 µM
TGI (SF-295 CNS): > 100 µM
TGI (HOP-62 NSCLC): > 100 µM
TGI (DLD-1 colon): > 100 µM
